Measurements as given in patent US7642245B2, “Antibacterial compounds having a (pyrrole carboxamide)-(benzamide)-(imidazole carboxamide) motif” (Oscient Pharmaceuticals Corporation, priority 2002, dated 2010).

Key:
S. aureus ATCC 13709 = experiment: MIC, NCCLS broth microdilution; assay type: cell-based, Staphylococcus aureus; details: A = S. aureus ATCC 13709 (MSSA)
Text: (§1) In vitro biological activity data were collected for a variety of microorganisms, including Staphylococcus aureus (ATCC 27660, a methicillin resistant strain (MRSA); ATCC 13709, a methicillin sensitive strain (MSSA)), Enterococcus faecalis (ATCC 29212), Bacillus cereus (ATCC 11778), Streptococcus pneumoniae (ATCC 49619), Candida albicans (ATCC 38247), Escherichia coli (ATCC 25922), and Moraxella (now Branhamella) catarrhalis (ATCC 25238).
(§2) The minimal inhibition concentration (MIC) of these compounds was determined using the National Committee for Clinical Laboratory Standards (NCCLS) broth microdilution assay in microtiter plates, as set forth in: (1) the guidelines of the National Committee for Clinical Laboratory Standards (NCCLS) Document M7-A4 (NCCLS, 1997); (2) the guidelines of the National Committee for Clinical Laboratory Standards (NCCLS) Document M11-A4 (NCCLS, 1997); and (3) the guidelines and reference method of the National Committee for Clinical Laboratory Standards (NCCLS) Document M27-T (NCCLS, 1995). For antifungal assays, the method recommended in Murray, P R., 1995 Manual of Clinical Microbiology (ASM Press, Washington, DC.), was employed.

S. aureus ATCC 27660 = experiment: MIC, NCCLS broth microdilution; assay type: cell-based, Staphylococcus aureus; details: B = S. aureus ATCC 27660 (MRSA)
Text: as §1, §2

E. faecalis ATCC 29212 = experiment: MIC, NCCLS broth microdilution; assay type: cell-based, Enterococcus faecalis; details: C = E. faecalis ATCC 29212
Text: as §1, §2

B. cereus ATCC 11778 = experiment: MIC, NCCLS broth microdilution; assay type: cell-based, Bacillus cereus; details: D = B. cereus ATCC 11778
Text: as §1, §2

S. pneumoniae ATCC 49619 = experiment: MIC, NCCLS broth microdilution; assay type: cell-based, Streptococcus pneumoniae; details: E = S. pneumoniae ATCC 49619
Text: as §1, §2

C. albicans ATCC 38247 = experiment: MIC, antifungal assay; assay type: cell-based, Candida albicans; details: F = C. albicans ATCC 38247
Text: as §1, §2

E. coli ATCC 25922 = experiment: MIC, NCCLS broth microdilution; assay type: cell-based, Escherichia coli; details: G = E. coli ATCC 25922
Text: as §1, §2

[1] = test system: M. catarrhalis (ATCC 25238); experiment: MIC, NCCLS broth microdilution; assay type: cell-based, Moraxella (now Branhamella) catarrhalis; details: H = M. catarrhalis (ATCC 25238)
Text: as §1, §2

SMILES | Minimum Inhibitory Concentration (MIC) (S. aureus ATCC 13709) | Minimum Inhibitory Concentration (MIC) (S. aureus ATCC 27660) | Minimum Inhibitory Concentration (MIC) (E. faecalis ATCC 29212) | Minimum Inhibitory Concentration (MIC) (B. cereus ATCC 11778) | Minimum Inhibitory Concentration (MIC) (S. pneumoniae ATCC 49619) | Minimum Inhibitory Concentration (MIC) (C. albicans ATCC 38247) | Minimum Inhibitory Concentration (MIC) (E. coli ATCC 25922) | Minimum Inhibitory Concentration (MIC) [1]
Cn1cc(NC(=O)c2cc3ccccc3cn2)cc1C(=O)Nc1ccc(C(=O)Nc2cn(C)c(C(=O)NCCN3CCCCCC3)n2)cc1 [Compound A-24] | +++ (MIC ≦ 4 μg/mL) | +++ (MIC ≦ 4 μg/mL) | +++ (MIC ≦ 4 μg/mL) | +++ (MIC ≦ 4 μg/mL) | +++ (MIC ≦ 4 μg/mL) | ++ (4 < MIC < 12 μg/mL) | >32 µg/mL | +++ (MIC ≦ 4 μg/mL)
Cn1cc(NC(=O)c2cc3ccccc3cn2)cc1C(=O)Nc1ccc(C(=O)Nc2cn(C)c(C(=O)NCCN3CCCCC3)n2)cc1 [Compound A-17] | +++ (MIC ≦ 4 μg/mL) | +++ (MIC ≦ 4 μg/mL) | +++ (MIC ≦ 4 μg/mL) | +++ (MIC ≦ 4 μg/mL) | +++ (MIC ≦ 4 μg/mL) | + (12 ≦ MIC ≦ 32 μg/mL) | +++ (MIC ≦ 4 μg/mL) | +++ (MIC ≦ 4 μg/mL)
Cn1cc(NC(=O)c2cc3ccccc3cn2)cc1C(=O)Nc1ccc(C(=O)Nc2cn(C)c(C(=O)NCCN3CCN(S(C)(=O)=O)CC3)n2)cc1 [Compound A-56] | +++ (MIC ≦ 4 μg/mL) | +++ (MIC ≦ 4 μg/mL) | +++ (MIC ≦ 4 μg/mL) | +++ (MIC ≦ 4 μg/mL) | +++ (MIC ≦ 4 μg/mL) | >32 µg/mL | >32 µg/mL | +++ (MIC ≦ 4 μg/mL)
Cn1cc(NC(=O)c2cc3ccccc3cn2)cc1C(=O)Nc1ccc(C(=O)Nc2cn(C)c(C(=O)NCCN3CCC(OC(=O)CN)CC3)n2)cc1 [Compound A-67] | +++ (MIC ≦ 4 μg/mL) | +++ (MIC ≦ 4 μg/mL) | +++ (MIC ≦ 4 μg/mL) | +++ (MIC ≦ 4 μg/mL) | +++ (MIC ≦ 4 μg/mL) | ++ (4 < MIC < 12 μg/mL) | + (12 ≦ MIC ≦ 32 μg/mL) | +++ (MIC ≦ 4 μg/mL)
Cn1cc(NC(=O)c2cc3ccccc3cn2)cc1C(=O)Nc1ccc(C(=O)Nc2cn(C)c(C(=O)NCCNC(CO)CO)n2)cc1 [Compound A-50] | +++ (MIC ≦ 4 μg/mL) | +++ (MIC ≦ 4 μg/mL) | ++ (4 < MIC < 12 μg/mL) | + (12 ≦ MIC ≦ 32 μg/mL) | +++ (MIC ≦ 4 μg/mL) | >32 µg/mL | >32 µg/mL | >32 µg/mL
Cn1cc(NC(=O)c2cc3cc4c(cc3cn2)OCO4)cc1C(=O)Nc1ccc(C(=O)Nc2cn(C)c(C(=O)NCCN3CCC(O)CC3)n2)cc1 [Compound A-6] | +++ (MIC ≦ 4 μg/mL) | +++ (MIC ≦ 4 μg/mL) | +++ (MIC ≦ 4 μg/mL) | +++ (MIC ≦ 4 μg/mL) | +++ (MIC ≦ 4 μg/mL) | + (12 ≦ MIC ≦ 32 μg/mL) | + (12 ≦ MIC ≦ 32 μg/mL) | ++ (4 < MIC < 12 μg/mL)

Results, then the compound that gave them:

Minimum Inhibitory Concentration (MIC) (S. aureus ATCC 13709) | Minimum Inhibitory Concentration (MIC) (S. aureus ATCC 27660) | Minimum Inhibitory Concentration (MIC) (E. faecalis ATCC 29212) | Minimum Inhibitory Concentration (MIC) (B. cereus ATCC 11778) | Minimum Inhibitory Concentration (MIC) (S. pneumoniae ATCC 49619) | Minimum Inhibitory Concentration (MIC) (C. albicans ATCC 38247) | Minimum Inhibitory Concentration (MIC) (E. coli ATCC 25922) | Minimum Inhibitory Concentration (MIC) [1] | SMILES
+++ (MIC ≦ 4 μg/mL) | ++ (4 < MIC < 12 μg/mL) | +++ (MIC ≦ 4 μg/mL) | +++ (MIC ≦ 4 μg/mL) | +++ (MIC ≦ 4 μg/mL) | >32 µg/mL | >32 µg/mL | + (12 ≦ MIC ≦ 32 μg/mL) | CC(S)CN1CCN(CCNC(=O)c2nc(NC(=O)c3ccc(NC(=O)c4cc(NC(=O)c5cc6ccccc6cn5)cn4C)cc3)cn2C)CC1 (stereo not drawn) [Compound A-77]
+++ (MIC ≦ 4 μg/mL) | +++ (MIC ≦ 4 μg/mL) | +++ (MIC ≦ 4 μg/mL) | +++ (MIC ≦ 4 μg/mL) | +++ (MIC ≦ 4 μg/mL) | + (12 ≦ MIC ≦ 32 μg/mL) | >32 µg/mL | ++ (4 < MIC < 12 μg/mL) | Cn1cc(NC(=O)c2cc3ccccc3cn2)cc1C(=O)Nc1ccc(C(=O)Nc2cn(C)c(C(=O)NCCNCCN3CCCC3)n2)cc1 [Compound A-36]
+++ (MIC ≦ 4 μg/mL) | +++ (MIC ≦ 4 μg/mL) | +++ (MIC ≦ 4 μg/mL) | +++ (MIC ≦ 4 μg/mL) | +++ (MIC ≦ 4 μg/mL) | >32 µg/mL | >32 µg/mL | + (12 ≦ MIC ≦ 32 μg/mL) | Cn1cc(NC(=O)c2sccc2Cl)cc1C(=O)Nc1ccc(C(=O)Nc2cn(C)c(C(=O)NCCN3CCC(O)CC3)n2)cc1 [Compound A-1]
+++ (MIC ≦ 4 μg/mL) | +++ (MIC ≦ 4 μg/mL) | +++ (MIC ≦ 4 μg/mL) | +++ (MIC ≦ 4 μg/mL) | +++ (MIC ≦ 4 μg/mL) | >32 µg/mL | +++ (MIC ≦ 4 μg/mL) | >32 µg/mL | Cn1cc(NC(=O)c2cc3ccccc3cn2)cc1C(=O)Nc1ccc(C(=O)Nc2cn(C)c(C(=O)NCCNCCCCCO)n2)cc1 [Compound A-33]
+++ (MIC ≦ 4 μg/mL) | +++ (MIC ≦ 4 μg/mL) | +++ (MIC ≦ 4 μg/mL) | +++ (MIC ≦ 4 μg/mL) | +++ (MIC ≦ 4 μg/mL) | >32 µg/mL | >32 µg/mL | >32 µg/mL | Cn1cc(NC(=O)c2cc3ccccc3cn2)cc1C(=O)Nc1ccc(C(=O)Nc2cn(C)c(C(=O)NCCNCCN3CCOCC3)n2)cc1 [Compound A-26]
+++ (MIC ≦ 4 μg/mL) | +++ (MIC ≦ 4 μg/mL) | +++ (MIC ≦ 4 μg/mL) | +++ (MIC ≦ 4 μg/mL) | +++ (MIC ≦ 4 μg/mL) | >32 µg/mL | >32 µg/mL | +++ (MIC ≦ 4 μg/mL) | Cn1cc(NC(=O)c2cc3ccccc3cn2)cc1C(=O)Nc1ccc(C(=O)Nc2cn(C)c(C(=O)NCCN3CCC(F)(F)CC3)n2)cc1 [Compound A-11]
